# Literature values as cited in US9017727B2, “Amino acid composition with improved dispersibility” (N.V. Nutricia, priority 2009, dated 2015).
# Settings: in water at 20 degrees Celsius
row,Molecule,Solubility (at 20° C.) (g/100 ml)
1,N[C@@H](CS)C(=O)O [Cysteine],16 g/100 ml
2,N[C@@H](CSSC[C@H](N)C(=O)O)C(=O)O [Cystine],0.009 g/100 ml
3,NC(=O)CC[C@H](N)C(=O)O [Glutamine],3.73 g/100 ml
4,N[C@@H](Cc1c[nH]cn1)C(=O)O [Histidine],3.84 g/100 ml
5,CC[C@H](C)[C@H](N)C(=O)O [Isoleucine],4.02 g/100 ml
6,Cysteine HCL-anhydrous,102 g/100 ml

# The next lines start with the values.
row,Solubility (at 20° C.) (g/100 ml),Molecule
1,15.8 g/100 ml,C[C@H](N)C(=O)O [L-Alanine]
2,2.38 g/100 ml,CC(C)C[C@H](N)C(=O)O [Leucine]
3,4.8 g/100 ml,CSCC[C@H](N)C(=O)O [Methionine]
4,17 g/100 ml,CC(=O)N[C@@H](CS)C(=O)O [N-acetyl cysteine]
5,2.74 g/100 ml,N[C@@H](Cc1ccccc1)C(=O)O [Phenylalanine]
6,1.06 g/100 ml,N[C@@H](Cc1c[nH]c2ccccc12)C(=O)O [Tryptophan]
7,5.75 g/100 ml,CC(C)[C@H](N)C(=O)O [Valine]
